# Patent EP1097716A1, “Dietary anti-adiposity food supplements and drugs based on thyrotropin-releasing hormone (TRH)” (Chronolife Inc., priority 1999, dated 2001)
# Columns and labels:
# [1] = Toxicity of increasing doses in the drinking water
# [2] = system: obese, anterior hypothalamic area (AHA)-lesioned mice; test: 20-day intraperitoneal treatment of obese AHA-lesioned mice, body weight (Table 3); assay type: in vivo, C57BL/6 male mice; conditions: N=6, Mean ± SD; for Body weight (g): p<0.05 vs before treatment
# Method: C57BL/6 male mice aged 7 months (AHA-lesioned at 2 months of age to induce obesity), were injected intraperitoneally for 20 days at 6 pm (evening) with 0.5 ml volume containing 10 µg TRH-tartrate in bidistilled water. Controls were injected with the same amount of diluent.
# [3] = system: anterior hypothalamic area (AHA)-lesioned obese mice; test: 48-day intraperitoneal treatment of AHA-lesioned obese mice, body weight (Table 5); assay type: in vivo, C57BL/6 female mice; conditions: N=4, Mean ± SD
# Method: C57BL/6 female mice aged 8 months (AHA-lesioned at 2 months of age to induce obesity), were injected intraperitoneally for 48 days at 6 pm (evening) with 0.5 ml volume containing 10 µg TRH-tartrate in bidistilled water. Controls were injected with the same amount of diluent.
# [4] = 20-day intraperitoneal treatment, blood levels of T3, T4 and TSH by radioimmunoassay in serum (Table 7); assay type: in vivo, C57BL/6 male mice; conditions: for T3 / T4 / TSH (µU/mL): serum, Mean ± SD
# Method: This is shown by Table 7 hereafter which report the results of assays which were ran under the following conditions.
# C57BL/6 male mice aged 9 months, were injected intraperitonealy for 20 days at 6 p.m. (evening) or at 8 a.m. (morning) with 0.5 ml volumes containing either 10 µg or 100 µg of TRH in bidistilled water. Controls were injected with the same amount of diluent. The mice were bled from the retroorbital venus plexus under rapid acute ether anaesthesia at 10 a.m. T3, T4 and TSH were measured by radioimmunoassay in the serum of individual mice. TABLE 7: […]
# old female mice = test: Chronic oral administration in drinking water, aging-related adiposity, body weight (Table 8); assay type: in vivo, BALB/cJ X C57BL/6 F1 female mice; conditions: n=15, Mean ± SD
# From the text: With other words, progressive alteration of pineal-hypothalamic-pituitary-peripheral endocrine glands function in the course of aging leads to the most typical appearance of decreased tolerance to glucose (hyperglycemia), increased levels of lipids, in particular triglycerides and cholesterol (hyperlipidemia) and progressive accumulation of fat, which is not obesity but the most common expression of hormonal derangements. TRH taken chronically will maintain normal body weight in normal aging mice, while the normal controls put on fat and weight.
# The results reported in Table 8 clearly support the presumption that TRH is also capable of preventing onset of aging-related adiposity in humans.
# [5] = 2 months treatment, blood levels of cholesterol and triglycerides in old mice (Table 9); assay type: in vivo, BALB/cJ female mice; conditions: 2 months treatment started in 20-month-old female mice, n = 10, dosages as for Table 7
# From the text: Evidence that the lipid related compounds whose proportions in the blood circulation of old mice have a cause different from those observed in young mice treated with TRH seems further indicated by the fact that the weight of 16 month-old female mice, thus older mice which tend to accumulate age-related adiposity, can also be controlled and even reduced by the adsorption of TRH (see table 8). Indeed the contents in lipid-related compounds in the blood circulation of older mice (20 month-old mice) treated with TRH remain substantially unaltered, as evidenced by the results shown in Table 9 hereafter. The dosages of TRH were the same as in the assay reported in relation to Table 7.
# [6] = aging mice (18 month-old mice) compared with young, e.g. three month-old mice; cited from earlier work
# [7] = TRH evening (6 p.m.) 10 µg i.p. for 20 days
# [8] = TRH evening (6 p.m.) 100 µg i.p. for 20 days
# [9] = TRH morning (8 a.m.) 10 µg i.p. for 20 days
# [10] = TRH morning (8 a.m.) 100 µg i.p. for 20 days
compound,measurement,setting,value
COc1ccc2[nH]cc(CCNC(C)=O)c2c1 [melatonin],toxicity,[1],not toxic
(pyro)Glu-His-Pro NH2 [TRH],Body weight,"[2]; After 10 days of treatment, 10 µg TRH-tartrate i.p. daily at 6 pm",33.7 ± 4.2 g
same,Body weight (g),"[2]; After 20 days of treatment, 10 µg TRH-tartrate i.p. daily at 6 pm",32.0 ± 3.6^∗ g
same,Body weight (g),[2]; After withdrawal period of 5 days following 20-day treatment,31.1 ± 3.4^∗ g
same,Body weight,[2]; After withdrawal period of 60 days following 20-day treatment,38.3 ± 5.9 g
same,Body weight,"[2]; Before treatment, AHA-lesioned male mice aged 7 months",39.0 ± 6.2 g
same,Body weight,"[3]; After 27 days of treatment, 10 µg TRH-tartrate i.p. daily at 6 pm",39.2 ± 7.2 g
same,Body weight (g),"[3]; After 48 days of treatment, 10 µg TRH-tartrate i.p. daily at 6 pm, p<0.05 vs before treatment",32.6 ± 4.4^∗ g
same,Body weight,"[3]; Before treatment, AHA-lesioned female mice aged 8 months",42.2 ± 6.4 g
same,T3,[4]; [7],0.82 ± 0.08 nmol/L
same,T4,[4]; [7],65.7 ± 4.2 nmol/L
same,TSH (µU/mL),[4]; [7],0.005 ± 0.004 µU/mL
same,T3,[4]; [8],0.91 ± 0.02 nmol/L
same,T4,[4]; [8],68.7 ± 13.1 nmol/L
same,TSH (µU/mL),[4]; [8],0.004 ± 0.005 µU/mL
same,T3,[4]; [9],1.03 ± 0.07 nmol/L
same,T4,[4]; [9],82.0 ± 1.9 nmol/L
same,TSH (µU/mL),[4]; [9],0.009 ± 0.006 µU/mL
same,T3,[4]; [10],0.84 ± 0.02 nmol/L
same,T4,[4]; [10],74.9 ± 13.3 nmol/L
same,TSH (µU/mL),[4]; [10],0.007 ± 0.005 µU/mL
same,acute toxicity,[4]; injected at huge dosages (up to 100 µg i.p. for 20 days),lack of acute toxicity
same,Body weight (g) before treatment,old female mice; 16 month-old female mice,33.1 ± 3.2 (15) g
same,Body weight (g) after treatment,"old female mice; TRH-tartrate in the drinking water (100µg/ml) for 5 months, started at 16 months of age",33.8 ± 4.0 (15) g
same,CHOLESTEROL,[5],1.65 ± 0.29 mmol/L
same,TRIGLYCERIDES,[5],1.19 ± 0.46 mmol/L
same,"levels of cholesterol, triglycerids and phospholipids",[6],brought back to values currently observed in young mice
